In patent publication US6596878B2, “Methods and compositions for inhibiting cell proliferative disorders” (Yissum Research & Development Company of the Hebrew …, priority 1994, dated 2003):
Where two headings read alike, the source gives them in different places.

Key:
HER2 = molecular target: T1, HER2 (Homo sapiens, UniProt P04626); test: HER2-BT474 whole cell kinase ELISA; assay type: cell-based
T1 construct: the human mammary carcinoma line BT474 (ATCC HTB2) expressing HER2; endogenous in cells; host or cells: BT474 human mammary carcinoma cells
T1 sequence (P04626 23-1255): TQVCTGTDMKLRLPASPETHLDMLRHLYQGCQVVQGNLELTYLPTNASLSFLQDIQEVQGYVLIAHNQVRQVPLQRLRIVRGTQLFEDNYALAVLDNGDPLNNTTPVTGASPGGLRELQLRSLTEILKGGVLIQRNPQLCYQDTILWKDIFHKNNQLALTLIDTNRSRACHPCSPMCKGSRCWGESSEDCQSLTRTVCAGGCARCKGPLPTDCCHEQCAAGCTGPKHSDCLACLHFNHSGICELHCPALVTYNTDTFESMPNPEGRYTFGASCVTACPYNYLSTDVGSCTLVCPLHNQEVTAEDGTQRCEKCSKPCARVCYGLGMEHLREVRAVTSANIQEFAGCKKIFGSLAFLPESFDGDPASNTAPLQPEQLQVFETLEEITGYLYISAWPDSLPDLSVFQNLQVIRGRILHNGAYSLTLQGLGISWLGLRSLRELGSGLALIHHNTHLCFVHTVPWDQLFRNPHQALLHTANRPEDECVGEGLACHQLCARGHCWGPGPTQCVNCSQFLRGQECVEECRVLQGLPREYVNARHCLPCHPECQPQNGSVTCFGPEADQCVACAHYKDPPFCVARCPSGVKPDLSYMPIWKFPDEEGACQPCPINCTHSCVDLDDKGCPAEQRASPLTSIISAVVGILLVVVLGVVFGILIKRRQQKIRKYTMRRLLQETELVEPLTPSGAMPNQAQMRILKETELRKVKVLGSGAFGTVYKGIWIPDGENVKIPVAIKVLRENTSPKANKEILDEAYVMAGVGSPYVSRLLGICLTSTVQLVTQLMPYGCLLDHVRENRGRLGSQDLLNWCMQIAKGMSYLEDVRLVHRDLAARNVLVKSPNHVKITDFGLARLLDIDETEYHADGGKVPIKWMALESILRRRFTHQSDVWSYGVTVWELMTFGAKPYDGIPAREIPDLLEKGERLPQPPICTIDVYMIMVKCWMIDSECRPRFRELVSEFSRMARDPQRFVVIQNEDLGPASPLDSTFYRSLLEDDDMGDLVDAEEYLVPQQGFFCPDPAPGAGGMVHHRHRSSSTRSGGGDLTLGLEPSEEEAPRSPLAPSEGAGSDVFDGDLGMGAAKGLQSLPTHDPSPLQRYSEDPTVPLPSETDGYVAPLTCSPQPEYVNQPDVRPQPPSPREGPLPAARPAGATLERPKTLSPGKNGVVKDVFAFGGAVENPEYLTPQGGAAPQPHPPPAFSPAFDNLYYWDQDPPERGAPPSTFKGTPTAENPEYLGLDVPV
Experimental: HER2-BT474 assays measuring whole cell HER2 activity was carried out as described below:
All the following steps are at room temperature and aseptically, unless stated otherwise. All ELISA plate washing is by rinsing with distilled water three times and once with TBST.
Incubate the cells in 5% CO2 at 37° C. overnight.
2. ELISA Plate Coating and Blocking

human EGF receptor = molecular target: T2, human EGF receptor (Homo sapiens, UniProt P00533); test: EGF-receptor whole cell kinase assay (EGFR-3T3); assay type: cell-based
T2 construct: expressed in transfected cells; host or cells: NIH3T3 clone C7 (EGFR/C7; mouse fibroblasts)
T2 sequence (P00533 25-1210): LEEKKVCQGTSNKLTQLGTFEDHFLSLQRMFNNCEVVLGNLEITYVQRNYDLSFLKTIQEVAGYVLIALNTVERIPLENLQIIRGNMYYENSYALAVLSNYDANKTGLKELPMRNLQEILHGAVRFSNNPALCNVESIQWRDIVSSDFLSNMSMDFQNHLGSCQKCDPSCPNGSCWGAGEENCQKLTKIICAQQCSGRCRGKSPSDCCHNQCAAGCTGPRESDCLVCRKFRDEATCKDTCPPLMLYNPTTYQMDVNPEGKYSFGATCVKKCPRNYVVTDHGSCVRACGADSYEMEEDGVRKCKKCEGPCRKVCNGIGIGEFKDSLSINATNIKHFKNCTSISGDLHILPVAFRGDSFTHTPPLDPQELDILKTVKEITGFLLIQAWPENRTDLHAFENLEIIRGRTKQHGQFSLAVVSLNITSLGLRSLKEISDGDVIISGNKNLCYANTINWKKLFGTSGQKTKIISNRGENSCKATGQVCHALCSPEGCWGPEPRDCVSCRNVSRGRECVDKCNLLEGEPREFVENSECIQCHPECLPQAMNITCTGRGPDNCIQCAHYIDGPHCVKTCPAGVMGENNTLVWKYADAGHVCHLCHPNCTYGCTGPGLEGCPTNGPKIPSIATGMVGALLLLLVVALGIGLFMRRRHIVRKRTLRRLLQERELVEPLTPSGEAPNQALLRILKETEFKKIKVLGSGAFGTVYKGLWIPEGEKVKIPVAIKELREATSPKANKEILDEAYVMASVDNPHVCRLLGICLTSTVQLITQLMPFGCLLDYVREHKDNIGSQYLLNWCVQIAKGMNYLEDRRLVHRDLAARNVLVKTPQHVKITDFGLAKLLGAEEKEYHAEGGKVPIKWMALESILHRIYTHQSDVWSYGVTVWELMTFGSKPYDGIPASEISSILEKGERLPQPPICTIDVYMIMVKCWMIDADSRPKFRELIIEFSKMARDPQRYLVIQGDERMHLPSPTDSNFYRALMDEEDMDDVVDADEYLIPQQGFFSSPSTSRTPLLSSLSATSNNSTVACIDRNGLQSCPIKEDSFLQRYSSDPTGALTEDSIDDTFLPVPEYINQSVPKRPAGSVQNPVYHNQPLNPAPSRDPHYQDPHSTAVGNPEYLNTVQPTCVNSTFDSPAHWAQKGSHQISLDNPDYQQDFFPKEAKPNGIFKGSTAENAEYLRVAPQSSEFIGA
Experimental: (§1) The following target cells were used for cellular kinaseassays: NIH3T3 clone C7 (Honegger et al., supra) engineered to over-express human EGF receptor; NIH3T3 cells engineered to over-express a chimeric receptor containing the EGFR extracellular domain and the HER2 intracellular kinase domain; the human mammary carcinoma line BT474 (ATCC HTB2) expressing HER2; and the human glioblastoma line U1242 that expresses PDGFR-β. Growth assays were carried out using human mammary epithelial SKBR3 (ATCC HTB30) cells, SKOV3 (ATCC HTB77) human ovarian cancer cell line, A431 cells, MCF7 human breast carcinoma cells, MCF7 cells overexpress the HER2 kinase (MCF7-HER2), NIH3T3 cells, and NIH3T3 cells overexpressing the HER2 kinase (3T3-HER2).
Unless otherwise stated the effect of various compounds on receptor tyrosine kinases were assayed as described in this section.
1. EGF-receptor Whole Cell Kinase Assay
EGFR kinase activity (EGFR-3T3 assay) in whole cells was measured as described below:
The following protocol was used:
A. Coat ELISA plates (Corning, 96 well, Cat. #25805-96) with 05-101 antibody at 0.5 μg per well in PBS, 150 μl final volume/well, and store overnight at 4° C. Coated plates are good for up to 10 days when stored at 4° C.
B. On day of use, remove coating buffer and replace with blocking buffer (5% Carnation Instant Non-Fat Dry Milk in PBS). Incubate the plate, shaking, at room temperature (about 23° C. to 25° C.) for 30 minutes. Just prior to use, remove blocking buffer and wash plate 4 times with TBST buffer.
A. EGFR/C7 cell line (Honegger, et al., Cell 51:199-209, 1987) can be use for this assay.
B. Choose dishes having 80-90% confluence for the experiment. Trypsinize cells and stop reaction by adding 10% CS DMEM medium. Suspend cells in DMEM medium (10% CS DMEM medium) and centrifuge once at 1000 rpm, and once at room temperature for 5 minutes.
C. Resuspend cells in seeding medium (DMEM, 0.5% bovine serum), and count the cells using trypan blue. Viability above 90% is acceptable. Seed cells in DMEM medium (0.5% bovine serum) at a density of 10,000 cells per well, 100 μl per well, in a 96 well microtiter plate. Incubate seeded cells in 5% CO2 at 37° C. for about 40 hours.
A. Check seeded cells for contamination using an inverted microscope. Dilute drug stock (10 mg/ml in DMSO) 1:10 in DMEM medium, then transfer 5 μl to a test well for a final drug dilution of 1:200 and a final DMSO concentration of […]. Control wells receive DMSO alone. Incubate in 5% CO2 at 37° C. for one hour.
B. Prepare EGF ligand: dilute stock EGF in DMEM so that upon transfer of 10 μl dilute EGF (1:12 dilution), 25 nM final concentration is attained.
C. Prepare fresh HNTG* sufficient for 100 μl per well; and place on ice.
D. After two hours incubation with drug, add prepared EGF ligand to cells, 10 μl per well, to yield a final concentration of 25 nM. Control wells receive DMEM alone. Incubate, shaking, at room temperature, for 5 minutes.
E. Remove drug, EGF, and DMEM. Wash cells twice with PBS. Transfer HNTG* to cells, 100 μl per well. Place on ice for 5 minutes. Meanwhile, remove blocking buffer from other ELISA plate and wash with TBST as described above.
F. With a pipette tip securely fitted to a micropipettor, scrape cells from plate and homogenize cell material by repeatedly aspirating and dispensing the HNTG* lysis buffer. Transfer lysate to a coated, blocked, and washed ELISA plate. Incubate shaking at room temperature for one hour.
G. Remove lysate and wash 4 times with TBST. Transfer freshly diluted anti-Ptyr antibody to ELISA plate at 100 μl per well. Incubate shaking at room temperature for 30 minutes in the presence of the anti-Ptyr antiserum (1:3000 dilution in TBST).
H. Remove the anti-Ptyr antibody and wash 4 times with TBST. Transfer the freshly diluted TAGO anti-rabbit IgG antibody to the ELISA plate at 100 μl per well.

[1] = system: MCF7 cells overexpress the HER2 kinase (MCF7-HER2); test: MCF-7/HER-2 SRB growth assay; assay type: cell-based, human; settings: Table VI, 0.5% FBS, four days
Source text: as §1, with “This example illustrates the ability of the exemplary compounds to inhibit receptor tyrosine kinases, such as HER2 and/or EGFR. The” for “The”
(§2) MCF-7 cells are seeded at 2000 cells/ well in a 96-well flat bottom plate in normal growth media, which was 10% FBS/RPMI supplemented with 2 mM Glutamine. The plate of cells is incubated for about 24 hours at 37° C. after which it receives an equal volume of compound dilution per well making the total volume per well 200 μl. The compound is prepared at 2 times the desired highest final concentration and serially diluted in the normal growth media in a 96-well round bottom plate and then transferred to plate of cells. DMSO serves as the vector control up to 0.2% as final concentration. The cells are then incubated at 37° C. in a humidified 5% CO2 incubator.
(§3) Four days following dosing of compound, the media is discarded and 200 μl/well of ice-cold 10% TCA (Trichloroacetic Acid) is added to fix cells. After 60 minutes at 4° C., the TCA is discarded and the plate is rinsed 5 times with water. The plate is then air-dried and 100 μl/well of 0.4% SRB (Sulforhodamine B from Sigma) in 1% Acetic Acid is added to stain cells for 10 minutes at room temperature. The SRB is discarded and the plate is rinsed 5 times with 1% Acetic Acid. After the plate is completely dried, 100 μl/well of 10 mM Tris-base is added to solubilize the dye. After 5 to 10 minutes, the plate is read on a Dynatech ELISA Plate Reader at dual wavelengths at 570 nm and 630 nm.
8. MCF-7/HER-2 SRB Growth Assay
The protocol is basically the same as that above (for the MCF-7 Growth Assay) except that immediately before the compound is added, the normal growth media is removed and 0.5% FBS/RPMI supplemented with 2 mM Glutamine is added onto the cells. The compound is also prepared in this 0.5% serum media. The plate of cells is incubated for four days and developed as usual.

[2] = system: MCF7 human breast carcinoma cells; test: MCF-7 SRB growth assay; assay type: cell-based; settings: Table VI, 10% FBS, four days
Source text: as §1, with “This example illustrates the ability of the exemplary compounds to inhibit receptor tyrosine kinases, such as HER2 and/or EGFR. The” for “The”
6. MCF-7 SRB Growth Assay
as §2, §3

A431 cells = test: A431 growth assay (sulphorhodamine B); assay type: cell-based; settings: Homo sapiens, A-431, 96 h; Table V; 4 days, SRB; read-out: Estimated IC50 Growth Assays A431 cells
Source text: as §1, with “This example illustrates the ability of the exemplary compounds to inhibit receptor tyrosine kinases, such as HER2 and/or EGFR. The” for “The”
SKBR3 cells over-express HER2. A431 cells over-express EGFR. These cells were dispensed into 96-well plates with test compounds. After 4 days the monolayers were TCA-fixed then stained with sulphorhodamine B. The absorbance versus log drug concentration was plotted and IC50 values estimated.
(4) Tris, crystallized free base—Fisher Catalog #BP152 Working solution: 10 mM tris=1.211 gram Trizma base/liter H2O. […]
(11) Read optical density at dual wavelength mode 570 nm and 630 nm on Dynatech ELISA plate reader, Model MR 5000.

[3] = HER2-BT474, Table VI, cellular kinase assay
[4] = Table V, read-out: Estimated IC50 Cellular Kinase Assays HER2 (BT474)
[5] = Table V, read-out: Estimated IC50 Cellular Kinase Assays EGFR (EGF-3T3)
[6] = Table VI, cellular kinase assay, read-out: EGFR-3T3
[7] = Table VI, cellular kinase assay, read-out: HER2-BT474
[8] = Estimated IC50 Cellular Kinase Assays HER2 (BT474), Table V
[9] = Table III, cellular kinase assay, class symbol, read-out: HER2
[10] = Table III, cellular kinase assay, class symbol, read-out: EGFR

IC50 (HER2; [4])	IC50 (human EGF receptor; [5])	IC50 (human EGF receptor; [6])	IC50 (HER2; [7])	SMILES	other results
> 50 µM	37.2 µM	37.2 µM	> 50 µM	CC(C)(C)c1cc(C=C(C#N)C#N)cc(Br)c1O [Compound M14]	
8.58 µM	8.65 µM	8.65 µM	8.58 µM	CC(C)(C)c1cc(C=C(C#N)c2[nH]nc(N)c2C#N)cc(C(C)(C)C)c1O [Compound M17]	
		17 µM	26 µM	N#C/C(=C\c1cc(O)c(O)c(I)c1)C(=O)NCc1ccccc1 [Compound M23]	
		> 100 µM	3.1 µM	CC(C)c1cc(/C=C(\C#N)C(N)=S)cc(C(C)C)c1O [Compound M25, (E)-2-Aminothiocarbonyl-3-(3,5-diisopropyl-4-hydroxyphenyl)acrylonitrile]	
			2.2 µM	CC(C)c1cc(/C=C(\C#N)C(=O)Nc2ccc(C(F)(F)F)cc2)cc(C(C)C)c1O [Compound M28, (E)-3-(3,5-Diisopropyl-4-hydroxyphenyl)-2-[(4-trifluoromethyl)phenylaminocarbonyl]acrylonitrile]	IC50 ([1]; Homo sapiens, MCF7, 96 h): 2 µM; IC50 ([2]; Homo sapiens, MCF7, 96 h): 12 µM
		6.8 µM	39 µM	N#C/C(=C\c1ccc([N+](=O)[O-])c(O)c1)C(=O)NCCCc1ccccc1 [Compound M39, (E)-3-(3-Hydroxy-4-nitrophenyl)-2-[(3-phenyl-n-propyl)aminocarbonyl]acrylonitrile]	
7.14 µM	0.04 µM			Cc1ccc2ncnc(Nc3cccc(Cl)c3)c2c1 [Compound P12a]	IC50 (A431 cells): 10 µM; IC50 (HER2; [9]): < 50 µM; IC50 (human EGF receptor; [10]): < 50 µM
1.6 µM				COc1cc2ncnc(Nc3cccc(Cl)c3)c2cc1OC [Compound P13a]	IC50 (HER2; [9]): < 50 µM
> 50 µM	22.2 µM			Cc1ccc2ncnc(Nc3ccc4c(c3)OCO4)c2c1 [Compound P14a]	IC50 (HER2; [9]): > 50 µM; IC50 (human EGF receptor; [10]): < 50 µM
> 50 µM	20.9 µM			Cc1ccc2ncnc(Nc3ccc4c(c3)OCO4)c2c1 [Compound P14b]	IC50 (HER2; [9]): > 50 µM; IC50 (human EGF receptor; [10]): < 50 µM
				N#CC(C#N)=NNc1cccc(Cl)c1 [Compound Q11]	IC50 (HER2; [8]): 11.1 µM; inhibition of HER2 activity (HER2; significantly inhibit = IC50 less than 50 μM): significantly inhibited; IC50 (human EGF receptor; Estimated IC50 Cellular Kinase Assays EGFR (EGF-3T3), Table V): > 50 µM
20.7 µM	35.5 µM			Cc1cc2nc(CBr)c(-c3ccccc3)nc2cc1C [Compound R9]	
25 µM	25 µM			Clc1cc2ncc(-c3ccccc3)nc2cc1Cl [Compound R14]	
> 50 µM	25 µM			Cc1cc2nc3c(nc2cc1C)-c1ccccc1C3=O [Compound R15]	

SMILES	IC50 (HER2; [4])	IC50 (human EGF receptor; [5])	IC50 (human EGF receptor; [6])	IC50 (HER2; [7])	other results
N#C/C(=C\c1ccc(O)c(O)c1)C(=O)NCCCCc1ccccc1 [Compound M10]	30.6 µM	> 50 µM	≥ 50 µM		IC50 (HER2; [3]): 30.6 µM
N#CC(C#N)=Cc1cc(O)c(O)c(I)c1 [Compound M12]	> 50 µM	13.4 µM	13.4 µM	> 50 µM	
CC(C)c1cc(C=C(C#N)C#N)cc(C(C)C)c1O [Compound M19]		> 50 µM	> 50 µM		IC50 (HER2; [8]): 10.6 µM; IC50 (HER2; [3]): 10.6 µM
Cc1cc(/C=C(\C#N)S(=O)(=O)/C(C#N)=C/c2cc(C)c(O)c(C)c2)cc(C)c1O [Compound M38]			> 100 µM	14 µM	IC50 [1]: > 100 µM; activity in cellular assays (HER2; cellular assays of the Examples, versus analogous compounds having bulkier R1 and R3 groups): less activity; IC50 [2]: > 100 µM
